Measurements as given in ChEMBL document CHEMBL1201862, “PubChem BioAssay data set” (2004).
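Following 48 hours of exposure in 96-well plates, responses at five concentrations were used to interpolate endpoints linearly. GI50 is the concentration that inhibits growth by half.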 The source made the active and inactive calls. No stated cut-off is given here; in the data, active = GI50 up to about 1.1 µM and inactive = higher.

Legend:
Experiment in all cases: DTP human tumour cell line panel, 48 h
[1] = system: SNB-78
[2] = system: CAKI-1
[3] = system: IGROV-1
[4] = system: UO-31
[5] = system: HT-29
[6] = system: SF-295
[7] = system: NCI-H522
[8] = system: 786-0
[9] = system: UACC-62
[10] = system: A549
[11] = system: A498
[12] = system: SK-MEL-28
[13] = system: SNB-19
[14] = system: RXF 393
[15] = system: OVCAR-5
[16] = system: SK-OV-3
[17] = system: SK-MEL-5
[18] = system: ACHN
[19] = system: XF498
[20] = system: HL-60
[21] = system: SF-539
[22] = system: KM12
[23] = system: EKVX
[24] = system: M14
[25] = system: LOX IMVI
[26] = system: SF-268
[27] = system: UACC-257
[28] = system: LXFL 529
[29] = system: NCI-H460
[30] = system: HOP-62
[31] = system: HCT-116
[32] = system: SK-MEL-2
[33] = system: HOP-92
[34] = system: HCT-15
[35] = system: K562
[36] = system: RXF 631
[37] = system: CCRF-CEM
[38] = system: NCI-H226
[39] = system: MOLT-4
[40] = system: HCC 2998
[41] = system: SN12C
[42] = system: NCI-H23
[43] = system: DMS-273
[44] = system: SR
[45] = system: SW-620
[46] = system: U-251
[47] = system: OVCAR-8
[48] = system: TK-10
[49] = system: M19-MEL
[50] = system: KM-20L2
[51] = system: RPMI-8226
[52] = system: OVCAR-3
[53] = system: SNB-75
[54] = system: DMS-114
[55] = system: OVCAR-4
[56] = system: DLD-1
[57] = system: COLO 205
[58] = system: Malme-3M

C[N+](C)=c1nc(N2CCOCC2)ss1
GI50 [1]: > 100 µM (inactive)
GI50 [2]: > 100 µM (inactive)
GI50 [3]: > 100 µM (inactive)
GI50 [4]: > 100 µM (inactive)
GI50 [5]: 22.8 µM (inactive)
GI50 [6]: 78.2 µM (inactive)
GI50 [7]: 13.7 µM (inactive)
GI50 [8]: > 100 µM (inactive)
GI50 [9]: 8.53 µM (inactive)
GI50 [10]: 47.3 µM (inactive)
GI50 [11]: 4.14 µM (inactive)
GI50 [12]: > 100 µM (inactive)
GI50 [13]: > 100 µM (inactive)
GI50 [14]: > 100 µM (inactive)
GI50 [15]: > 100 µM (inactive)
GI50 [16]: > 100 µM (inactive)
GI50 [17]: > 100 µM (inactive)
GI50 [18]: > 100 µM (inactive)
GI50 [19]: > 100 µM (inactive)
GI50 [20]: > 100 µM (inactive)
GI50 [21]: > 100 µM (inactive)
GI50 [22]: > 100 µM (inactive)
GI50 [23]: > 100 µM (inactive)
GI50 [24]: > 100 µM (inactive)
GI50 [25]: 88.7 µM (inactive)
GI50 [26]: 76.6 µM (inactive)
GI50 [27]: > 100 µM (inactive)
GI50 [28]: > 100 µM (inactive)
GI50 [29]: 8.04 µM (inactive)
GI50 [30]: > 100 µM (inactive)
GI50 [31]: > 100 µM (inactive)
GI50 [32]: > 100 µM (inactive)
GI50 [33]: > 100 µM (inactive)
GI50 [34]: > 100 µM
GI50 [35]: > 100 µM (inactive)
GI50 [36]: 0.337 µM (active)
GI50 [37]: > 100 µM (inactive)
GI50 [38]: > 100 µM (inactive)
GI50 [39]: > 100 µM (inactive)
GI50 [40]: > 100 µM (inactive)
GI50 [41]: > 100 µM (inactive)
GI50 [42]: > 100 µM (inactive)
GI50 [43]: > 100 µM (inactive)
GI50 [44]: > 100 µM (inactive)
GI50 [45]: > 100 µM (inactive)
GI50 [46]: > 100 µM (inactive)
GI50 [47]: > 100 µM (inactive)
GI50 [48]: > 100 µM (inactive)

N#CCc1ccccc1/C(C#N)=C1/OC(=N)C(c2ccccc2CC#N)C1=O (stereo not drawn)
GI50 [2]: > 100 µM (inactive)
GI50 [3]: > 100 µM (inactive)
GI50 [49]: > 100 µM (inactive)
GI50 [50]: > 100 µM (inactive)
GI50 [5]: 92 µM (inactive)
GI50 [6]: > 100 µM (inactive)
GI50 [51]: > 100 µM (inactive)
GI50 [7]: 47.4 µM (inactive)
GI50 [8]: > 100 µM (inactive)
GI50 [9]: 42.2 µM (inactive)
GI50 [52]: > 100 µM (inactive)
GI50 [10]: > 100 µM (inactive)
GI50 [53]: > 100 µM (inactive)
GI50 [12]: > 100 µM (inactive)
GI50 [16]: > 100 µM (inactive)
GI50 [17]: > 100 µM (inactive)
GI50 [18]: > 100 µM (inactive)
GI50 [20]: > 100 µM (inactive)
GI50 [21]: > 100 µM (inactive)
GI50 [22]: > 100 µM (inactive)
GI50 [23]: > 100 µM (inactive)
GI50 [24]: > 100 µM (inactive)
GI50 [25]: > 100 µM (inactive)
GI50 [26]: > 100 µM (inactive)
GI50 [27]: > 100 µM (inactive)
GI50 [28]: 43.2 µM (inactive)
GI50 [31]: > 100 µM (inactive)
GI50 [33]: > 100 µM (inactive)
GI50 [35]: > 100 µM (inactive)
GI50 [36]: > 100 µM (inactive)
GI50 [37]: > 100 µM (inactive)
GI50 [38]: > 100 µM (inactive)
GI50 [39]: 57.8 µM (inactive)
GI50 [43]: > 100 µM (inactive)
GI50 [44]: > 100 µM (inactive)
GI50 [45]: > 100 µM (inactive)
GI50 [48]: > 100 µM (inactive)

O=C1C2=C(c3ccccc31)C(c1ccccc1Cl)N1C(=O)CSC1=N2 (stereo not drawn)
GI50 [2]: > 100 µM (inactive)
GI50 [54]: 53.8 µM (inactive)
GI50 [3]: > 100 µM (inactive)
GI50 [4]: 54 µM (inactive)
GI50 [49]: > 100 µM (inactive)
GI50 [50]: > 100 µM (inactive)
GI50 [5]: > 100 µM (inactive)
GI50 [6]: 83.4 µM (inactive)
GI50 [51]: 39.8 µM (inactive)
GI50 [7]: 23.8 µM (inactive)
GI50 [8]: > 100 µM (inactive)
GI50 [55]: 60.1 µM (inactive)
GI50 [9]: 59.4 µM (inactive)
GI50 [52]: 87.3 µM (inactive)
GI50 [10]: > 100 µM (inactive)
GI50 [11]: > 100 µM (inactive)
GI50 [53]: 39.4 µM (inactive)
GI50 [12]: 49.3 µM (inactive)
GI50 [13]: > 100 µM (inactive)
GI50 [56]: > 100 µM (inactive)
GI50 [15]: > 100 µM (inactive)
GI50 [16]: > 100 µM (inactive)
GI50 [17]: > 100 µM (inactive)
GI50 [18]: > 100 µM (inactive)
GI50 [19]: 64 µM (inactive)
GI50 [20]: 45.6 µM (inactive)
GI50 [21]: > 100 µM (inactive)
GI50 [22]: > 100 µM (inactive)
GI50 [23]: > 100 µM (inactive)
GI50 [24]: > 100 µM (inactive)
GI50 [25]: > 100 µM (inactive)
GI50 [57]: > 100 µM (inactive)
GI50 [26]: 56.2 µM (inactive)
GI50 [27]: > 100 µM (inactive)
GI50 [28]: 74.3 µM (inactive)
GI50 [29]: > 100 µM (inactive)
GI50 [30]: > 100 µM (inactive)
GI50 [31]: 87.3 µM (inactive)
GI50 [32]: > 100 µM (inactive)
GI50 [58]: > 100 µM (inactive)
GI50 [33]: 32.5 µM (inactive)
GI50 [34]: 83.4 µM
GI50 [35]: 50.4 µM (inactive)
GI50 [36]: > 100 µM (inactive)
GI50 [37]: 44.3 µM (inactive)
GI50 [38]: > 100 µM (inactive)
GI50 [39]: 33.9 µM (inactive)
GI50 [40]: > 100 µM (inactive)
GI50 [41]: > 100 µM (inactive)
GI50 [42]: 85.7 µM (inactive)
GI50 [43]: > 100 µM (inactive)
GI50 [45]: > 100 µM (inactive)
GI50 [46]: > 100 µM (inactive)
GI50 [47]: > 100 µM (inactive)
GI50 [48]: > 100 µM (inactive)

CCOc1ccc2nc(NC(=O)C(=O)C(C(=O)c3ccccc3F)C3OC(=O)c4ccccc43)sc2c1 (stereo not drawn)
GI50 [1]: 17.5 µM (inactive)
GI50 [2]: 31.8 µM (inactive)
GI50 [3]: 25.6 µM (inactive)
GI50 [4]: 18.4 µM (inactive)
GI50 [49]: 12.1 µM (inactive)
GI50 [50]: 27.9 µM (inactive)
GI50 [51]: 19.1 µM (inactive)
GI50 [7]: 14 µM (inactive)
GI50 [55]: 19.2 µM (inactive)
GI50 [9]: 14.6 µM (inactive)
GI50 [10]: 31.6 µM (inactive)
GI50 [11]: 25.8 µM (inactive)
GI50 [53]: 15.1 µM (inactive)
GI50 [12]: 24.4 µM (inactive)
GI50 [13]: 14.5 µM (inactive)
GI50 [56]: 25.3 µM (inactive)
GI50 [14]: 21.5 µM (inactive)
GI50 [16]: 24.1 µM (inactive)
GI50 [17]: 15.9 µM (inactive)
GI50 [18]: 33.2 µM (inactive)
GI50 [19]: 24.1 µM (inactive)
GI50 [20]: 16.8 µM (inactive)
GI50 [21]: 10.3 µM (inactive)
GI50 [22]: 0.723 µM (active)
GI50 [23]: 19.1 µM (inactive)
GI50 [24]: 16.5 µM (inactive)
GI50 [57]: 15.6 µM (inactive)
GI50 [26]: 16.1 µM (inactive)
GI50 [27]: 41.3 µM (inactive)
GI50 [28]: 19.7 µM (inactive)
GI50 [29]: 17.5 µM (inactive)
GI50 [30]: 23.5 µM (inactive)
GI50 [31]: 17.6 µM (inactive)
GI50 [32]: 19.6 µM (inactive)
GI50 [34]: 14.5 µM
GI50 [35]: 21.8 µM (inactive)
GI50 [36]: 14.5 µM (inactive)
GI50 [37]: 12.3 µM (inactive)
GI50 [38]: 5.01 µM (inactive)
GI50 [39]: 10.3 µM (inactive)
GI50 [40]: 15.9 µM (inactive)
GI50 [41]: 16.4 µM (inactive)
GI50 [43]: 19.1 µM (inactive)
GI50 [44]: 11.7 µM (inactive)
GI50 [45]: 19.3 µM (inactive)
GI50 [46]: 11.1 µM (inactive)
GI50 [47]: 16 µM (inactive)
GI50 [48]: 23.3 µM (inactive)
